Data published in publication PMC2605271 (Journal of clinical neuroscience : official journal of the …, 2008).
Entries after “also recorded” stand apart in the source; their conditions may differ.

Assays:
[1] = target: norepinephrine transporter (NET) (Homo sapiens, UniProt P23975); conditions: 10^−7 M to 10^−3 M, 30 minutes, HEK-hNET cells
[2] = target: T1, serotonin transporter (SERT) (Homo sapiens, UniProt P31645)
[3] = target: T1, serotonin transporter (SERT); test: cell-based
NET protein expression = test: Immunoblotting of NET protein expression in HEK-hNET cells; assay type: cell-based, human; conditions: 10^−6 M, 24 hours

T1 sequence (P31645 whole entry): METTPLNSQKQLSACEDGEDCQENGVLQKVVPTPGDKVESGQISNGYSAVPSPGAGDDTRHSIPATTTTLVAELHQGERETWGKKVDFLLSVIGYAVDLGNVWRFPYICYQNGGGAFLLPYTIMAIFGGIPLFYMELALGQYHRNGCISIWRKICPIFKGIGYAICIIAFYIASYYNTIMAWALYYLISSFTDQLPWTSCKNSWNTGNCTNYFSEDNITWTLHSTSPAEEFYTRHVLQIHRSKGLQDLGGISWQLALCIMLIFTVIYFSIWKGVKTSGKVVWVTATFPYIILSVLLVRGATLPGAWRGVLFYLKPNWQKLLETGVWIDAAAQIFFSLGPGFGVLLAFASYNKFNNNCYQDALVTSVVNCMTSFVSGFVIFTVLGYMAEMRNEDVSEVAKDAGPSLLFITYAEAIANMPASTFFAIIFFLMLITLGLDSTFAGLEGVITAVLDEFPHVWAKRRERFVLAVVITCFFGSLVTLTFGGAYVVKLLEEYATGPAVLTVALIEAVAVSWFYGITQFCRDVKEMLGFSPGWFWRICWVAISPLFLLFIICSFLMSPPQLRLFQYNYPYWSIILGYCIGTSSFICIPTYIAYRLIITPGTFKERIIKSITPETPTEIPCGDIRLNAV
Sequence of norepinephrine transporter (NET) (P23975 whole entry): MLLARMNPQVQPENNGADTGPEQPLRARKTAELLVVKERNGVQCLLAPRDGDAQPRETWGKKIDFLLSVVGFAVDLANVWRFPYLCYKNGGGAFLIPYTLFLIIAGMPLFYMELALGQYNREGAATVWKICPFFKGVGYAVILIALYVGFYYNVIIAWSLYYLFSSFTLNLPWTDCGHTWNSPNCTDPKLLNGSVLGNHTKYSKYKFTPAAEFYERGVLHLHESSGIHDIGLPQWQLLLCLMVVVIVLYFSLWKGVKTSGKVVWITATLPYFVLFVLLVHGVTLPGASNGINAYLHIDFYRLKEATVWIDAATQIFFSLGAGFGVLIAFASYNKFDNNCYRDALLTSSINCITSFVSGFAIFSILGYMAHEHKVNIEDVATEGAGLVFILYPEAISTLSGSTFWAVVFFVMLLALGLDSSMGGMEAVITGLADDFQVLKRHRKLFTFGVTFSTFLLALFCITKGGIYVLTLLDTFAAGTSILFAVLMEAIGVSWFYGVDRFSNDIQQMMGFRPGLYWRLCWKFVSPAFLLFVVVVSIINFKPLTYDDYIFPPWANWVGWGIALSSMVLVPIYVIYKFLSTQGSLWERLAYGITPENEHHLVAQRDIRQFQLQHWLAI

SMILES	Effect on NET function ([3H]-NE uptake) [1]	Effect on SERT function ([3H]-5-HT uptake) [2]	EC50 [3] [mM]	Change in NET protein expression in response to chronic desipramine treatment (NET protein expression)
CCCC(C)C1(CC)C(=O)NC(=S)NC1=O (stereo not shown) [Thiopental, thiopental]	failed to have any effect; also recorded: no effect; also recorded: No evidence of inhibition	failed to have any effect; also recorded: no effect	> 50	
CNCCCN1c2ccccc2CCc2ccccc21 [desipramine]				no changes
